According to patent US20260240903A1, “USE OF TRIVALENT CHROMIUM IONS AND/OR METAL CHROMIUM IN PREPARATION OF DRUG FOR IMMUNOTHERAPY OF TUMORS” (SHENZHEN LUOHU PEOPLE'S HOSPITAL, priority 2023, published 2026):

Legend:
macrophages (RAW264.7) = test: Transwell detection of the promotion of macrophage migration by metal ions; assay type: cell-based, mouse; details: for ability to promote the migration of macrophages: liver cancer cells in lower chamber, metal ions 0, 500, 1000, 2000 μM, RAW264.7 in upper chamber
Text: This example provides the establishment and validation of a platform for screening metal ions that promotes the migration of immune cells. A specific method is described below. • 1. Preparation of metal ions: metal compounds such as zinc chloride, potassium chloride, magnesium chloride, manganese chloride, anhydrous calcium chloride, aluminium sulfate (octadecahydrate), anhydrous copper(II) chloride, anhydrous iron(III) chloride, iron(II) chloride, chromium(III) chloride hexahydrate and anhydrous cobalt(II) chloride were prepared into solutions ranging from 0 μM to 2000 μM using normal saline, respectively. • 2. Preparation of BM-DCs (bone marrow-derived dendritic cells), RAW264.7 (mouse monocytic leukemia macrophage cells) and mouse spleen lymphocytes • (1) Acquisition of mouse BM-DCs: bone marrow was taken from hind limbs of […] mice, and treated with a red blood cell lysis buffer to remove red blood cells; bone marrow cells (4×10^6 cells) were cultured in a 10 cm culture dish, and 10% FBS, mercaptoethanol (2-ME, 0.8 ng/ml, Sigma) and mouse granulocyte-macrophage colony-stimulating factor (GM-CSF, 20 ng/mL, PeproTech) were added to a DMEM medium and cultured for 7 days; expression levels of CD11c, CD80 and CD86 in cells were detected using antibodies and a flow cytometer. • (2) Mouse macrophages RAW264.7: derived from a cell bank of the Chinese Academy of Sciences and cultured. • (3) Mouse spleen lymphocytes: spleens of C57BL/6 mice were acquired and filtered by a screen into single cells, treated with a red blood cell lysis buffer to remove red blood cells, and centrifuged with lymphocyte isolation solution to isolate the cells for in vitro culture. • 3. Transwell detection of the promotion of the migration of immune cells by metal ions
Liver cancer cells were placed in lower chambers (12 wells) of a Transwell plate, and the above metal ion solutions with different concentrations (0 μM, 500 μM, 1000 μM and 2000 μM) were added to the lower chambers, respectively. After 24 h, the BM-DCs, the RAW264.7 cells and the spleen lymphocytes were placed in upper chambers (2×10^4 cells/well) of the Transwell plate, respectively. The cells were co-cultured for a certain period of time, and nylon membranes of the chambers were taken and stained to observe the migration of the cells.

[1] = Stability of metal ions in vitro and in vivo; assay type: physicochemical
RAW264.7 cells = test: CCK-8 assay of toxicity of metal ions; assay type: cell-based, mouse; details: 0-200 μg/mL metal ions, 24 h
Description: Toxicities of metal ions with different concentrations on RAW264.7 cells were quantified through a CCK-8 assay. Specific steps are as follows: RAW264.7 cells (2×10^4 cells/well, n=4) were inoculated in a 96-well plate, stayed for a whole night and cultured by media containing metal ions with different concentrations (0 μg/mL, 25 μg/mL, 50 μg/mL, 100 μg/mL and 200 μg/mL) for 24 h, respectively, and cell viability was measured through CCK-8.

[2] = test system: subcutaneous melanoma (B16F10 cells); test: Growth of subcutaneous melanoma in B16F10 tumor-bearing mice; assay type: in vivo; details: B16F10 tumor-bearing C57BL/6 mice, vein injection twice at 4-day interval; BMS-202 0.1 mg/mouse, Cr^3+ 100 μg/mL 100 μL, 12 days
Text: A batch of SPF C57BL/6 mice (6 weeks old) were purchased from a company. B16F10 cells were selected as subcutaneous tumor model cells. 5×10^5 B16F10 cells were inoculated on a right side of a dorsal flank of each mouse and cultured for 13 days. When tumor volumes reached 100-200 mm^3, the modeling was successful. The obtained tumor-bearing mice can be used for a subsequent in vivo experiment. Animal experiments all comply with requirements for animal protection ethics and welfare.
The successfully constructed B16 tumor-bearing mice were divided into four groups: a CrCl3 experimental group (amount of chromium ions: 100 μg/mL, 100 μL), a BMS experimental group (0.1 mg/mouse), a CrCl3+BMS experimental group (100 μg/mL, 100 μL CrCl3+0.1 mg BMS/mouse) and a control group (normal saline, 100 μL) (n=3 for each group). On the first day, CrCl3, BMS and CrCl3+BMS were injected into veins of mice in different groups, respectively. […] Tumor growth was monitored every two days by a digital caliper with a tumor volume calculation formula of ½×L×W^2. On the 12th day of treatment, the mice were euthanatized.

[3] = test system: MIP-1α secretion in RAW264.7 cells; test: ELISA of MIP-1α secretion in RAW264.7 cells; assay type: cell-based, mouse; details: Cr^3+ 0, 50, 100, 200 μg/mL, 48 h
Description: (§1) Cr^3+ with different concentrations (0 μg/mL, 50 μg/mL, 100 μg/mL and 200 μg/mL) was co-incubated with RAW264.7 cells (1×10^6 cells/well) for 48 h. Cell supernatants and protein samples were collected, and various types of […] including MIP-la were detected through ELISA. The expression of various proteins in a PI3K/Akt/mTOR pathway was detected through protein immunoblotting.

IR tyrosine kinases = IR tyrosine kinases (Homo sapiens, UniProt P06213); details: background statement; cited from earlier work
Chain of IR tyrosine kinases (P06213 28-1382): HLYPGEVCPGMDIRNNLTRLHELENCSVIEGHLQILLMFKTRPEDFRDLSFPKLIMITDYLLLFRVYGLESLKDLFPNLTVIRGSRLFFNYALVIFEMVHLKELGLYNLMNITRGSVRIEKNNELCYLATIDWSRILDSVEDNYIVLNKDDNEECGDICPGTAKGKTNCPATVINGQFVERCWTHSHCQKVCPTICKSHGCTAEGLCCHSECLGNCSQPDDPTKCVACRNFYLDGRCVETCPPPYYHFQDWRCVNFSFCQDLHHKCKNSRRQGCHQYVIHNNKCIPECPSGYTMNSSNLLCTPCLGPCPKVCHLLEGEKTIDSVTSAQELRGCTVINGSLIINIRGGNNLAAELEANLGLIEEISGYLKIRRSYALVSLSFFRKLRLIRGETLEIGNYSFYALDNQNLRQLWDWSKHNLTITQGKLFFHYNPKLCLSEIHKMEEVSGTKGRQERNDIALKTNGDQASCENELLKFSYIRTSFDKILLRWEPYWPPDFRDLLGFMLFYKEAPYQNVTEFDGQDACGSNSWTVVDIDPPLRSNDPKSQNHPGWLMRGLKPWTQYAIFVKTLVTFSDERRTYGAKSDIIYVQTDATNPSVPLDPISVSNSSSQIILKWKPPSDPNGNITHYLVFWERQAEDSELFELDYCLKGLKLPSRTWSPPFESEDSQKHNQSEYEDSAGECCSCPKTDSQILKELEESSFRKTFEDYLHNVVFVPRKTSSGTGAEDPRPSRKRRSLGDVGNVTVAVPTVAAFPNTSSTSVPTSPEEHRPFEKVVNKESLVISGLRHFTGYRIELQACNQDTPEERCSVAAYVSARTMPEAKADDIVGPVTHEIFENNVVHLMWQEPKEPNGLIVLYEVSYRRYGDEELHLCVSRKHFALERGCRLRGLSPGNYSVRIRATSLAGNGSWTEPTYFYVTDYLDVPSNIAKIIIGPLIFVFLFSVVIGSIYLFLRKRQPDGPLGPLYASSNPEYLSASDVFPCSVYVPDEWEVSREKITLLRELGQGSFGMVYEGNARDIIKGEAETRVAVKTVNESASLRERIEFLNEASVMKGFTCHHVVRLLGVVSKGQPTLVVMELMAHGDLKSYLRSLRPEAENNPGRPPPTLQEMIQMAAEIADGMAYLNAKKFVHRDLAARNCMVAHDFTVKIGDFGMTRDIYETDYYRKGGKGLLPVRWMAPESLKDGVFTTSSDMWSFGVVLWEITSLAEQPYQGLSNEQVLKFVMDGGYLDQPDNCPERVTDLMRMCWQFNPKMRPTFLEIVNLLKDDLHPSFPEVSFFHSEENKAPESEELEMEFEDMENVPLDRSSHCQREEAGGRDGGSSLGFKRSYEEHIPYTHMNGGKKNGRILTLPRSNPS

PI3K/AKT/mTOR pathway = test: Protein immunoblotting of the PI3K/Akt/mTOR pathway in RAW264.7 cells; assay type: cell-based, mouse
Description: as §1

**Q.** With `[Cl][Fe][Cl]` [Fe^2+, iron(II) chloride, reference compound] as the compound, how does the “ability to promote the migration of macrophages” value (macrophages (RAW264.7)) read?
**A.** have an ability to promote the migration of macrophages

**Q.** And the “stability in vitro and in vivo” value [1]?
**A.** poor stability in vitro and in vivo and is easily oxidized to Fe^3+

**Q.** Which results are given for `[Cl][Cu][Cl]` [Cu^2+, anhydrous copper(II) chloride, reference compound]?
**A.** ability to promote the migration of macrophages (macrophages (RAW264.7)): have an ability to promote the migration of macrophages; toxicity on RAW264.7 cells (cell viability, CCK-8) (RAW264.7 cells): relatively high cytotoxicity

**Q.** What does the source list for `O.O.O.O.O.O.[Cl][Cr]([Cl])[Cl]` [Cr^3+, chromium(III) chloride hexahydrate]?
**A.** migration promoting effect on macrophages (macrophages (RAW264.7); Cr^3+ between 0 μM and 2000 μM): significant migration promoting effect; ability to promote the migration of macrophages (macrophages (RAW264.7)): have an ability to promote the migration of macrophages; effect on tumor growth of subcutaneous melanoma [2]: no significant limiting effect on the tumor growth; toxicity on RAW264.7 cells (cell viability, CCK-8) (RAW264.7 cells): good biocompatibility (low biological toxicity); secretion of MIP-1α [3]: significantly increased; enhancement of the activity of IR tyrosine kinases (IR tyrosine kinases): six times; activation of the PI3K/AKT/mTOR pathway (PI3K/AKT/mTOR pathway): can activate the PI3K/AKT/mTOR pathway; expression of AKT and phosphorylated AKT (pAKT) (PI3K/AKT/mTOR pathway; 48 h): induces high expression

**Q.** For `COc1nc(OCc2cccc(-c3ccccc3)c2C)ccc1CNCCNC(C)=O` [BMS-202, reference compound], which “effect on tumor growth of subcutaneous melanoma” value [2] is on record?
**A.** no significant limiting effect on the tumor growth
